Tests used:
[1] = tested on: U87MG cells; assay: Cell proliferation (cell confluence), IncuCyte Live-Cell Analysis System; format: cell-based, human; settings: Mito-PEG5-ATO 0.15 µM, AZD-3965 600 µM
Experimental: (§1) The following cell lines were obtained from the American Type Culture Collection (Manassas, VA), where they were regularly authenticated: MiaPaCa-2 (ATCC Cat# CRL-1420, human pancreatic cancer cells), U87MG (ATCC Cat# HTB-14, human brain cancer cells), A549 (ATCC Cat# CCL-185, lung cancer cells), and HCT-116 (ATCC Cat# CCL-247, colon cancer cells). All cell lines were grown at 37 °C in 5% carbon dioxide. MiaPaCa-2 cells were maintained in Dulbecco's Modified Eagle Medium (Thermo Fisher Scientific, Waltham, MA; Cat# 11965) supplemented with 10% fetal bovine serum. U87MG, A549, and HCT-116 cells were maintained in RPMI 1640 medium (Thermo Fisher Scientific, Cat# 11875), supplemented with 10% fetal bovine serum. All cells were stored in liquid nitrogen and used within 20 passages after thawing.
The IncuCyte Live-Cell Analysis System was used to monitor cell proliferation[3],[33],[67]. As shown in previous publications[3],[67], this imaging system is probe-free and noninvasive, and enables continuous monitoring of cell confluence over several days. […] Cells were then treated with Mito-PEG-ATO analogs, and the cell confluency was recorded over several days in the IncuCyte Live-Cell Analysis System.
Figure S4. […] (a) Effects of Mito-PEG-ATO analogs on the proliferation of U87MG cells were monitored in the IncuCyte Live-Cell Analysis System. […]

[2] = target: mitochondrial complex I (MiaPaCa-2 cells) (Homo sapiens, UniProt O75251+O75306+P03886); assay: Complex I-dependent oxygen consumption in permeabilized cells, Seahorse XF-96; format: cell-based; settings: 24 h, with Mito-PEG5-ATO
Chain of mitochondrial complex I (MiaPaCa-2 cells) (O75306 34-463): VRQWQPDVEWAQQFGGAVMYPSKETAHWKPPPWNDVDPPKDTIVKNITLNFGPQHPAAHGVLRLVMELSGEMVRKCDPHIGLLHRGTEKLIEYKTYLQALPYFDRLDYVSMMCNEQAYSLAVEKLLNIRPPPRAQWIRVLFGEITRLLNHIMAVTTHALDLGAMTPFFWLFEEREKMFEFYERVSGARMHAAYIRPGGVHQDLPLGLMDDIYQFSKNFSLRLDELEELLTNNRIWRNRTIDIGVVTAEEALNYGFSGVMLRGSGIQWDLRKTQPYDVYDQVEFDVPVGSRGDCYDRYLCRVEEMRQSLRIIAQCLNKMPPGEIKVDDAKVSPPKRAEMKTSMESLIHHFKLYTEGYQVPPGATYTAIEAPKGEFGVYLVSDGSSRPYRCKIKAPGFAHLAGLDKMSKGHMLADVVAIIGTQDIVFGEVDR
Chain of mitochondrial complex I (MiaPaCa-2 cells) (O75251 39-213): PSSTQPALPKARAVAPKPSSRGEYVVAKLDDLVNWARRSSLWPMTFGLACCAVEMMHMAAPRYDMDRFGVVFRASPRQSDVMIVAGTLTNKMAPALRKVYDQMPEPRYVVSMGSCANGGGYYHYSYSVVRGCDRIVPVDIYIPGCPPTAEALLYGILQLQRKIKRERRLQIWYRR
Chain of mitochondrial complex I (MiaPaCa-2 cells) (P03886 whole entry): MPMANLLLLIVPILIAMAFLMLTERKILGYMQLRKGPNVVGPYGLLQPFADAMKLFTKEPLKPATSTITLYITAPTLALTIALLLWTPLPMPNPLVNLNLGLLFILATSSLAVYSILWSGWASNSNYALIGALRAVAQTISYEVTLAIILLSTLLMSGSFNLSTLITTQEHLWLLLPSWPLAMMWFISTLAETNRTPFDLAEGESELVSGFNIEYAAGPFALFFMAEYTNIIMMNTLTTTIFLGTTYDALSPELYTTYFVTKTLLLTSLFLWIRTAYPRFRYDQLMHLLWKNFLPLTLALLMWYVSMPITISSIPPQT
Experimental: Mitochondrial oxygen consumption was measured using the Seahorse XF-96 Extracellular Flux Analyzer (Agilent, North Billerica, MA)[3],[33],[67],[68]. To determine the intact cell mitochondrial function of MiaPaCa-2 cells in response to Mito-PEG-ATO analogs, we used the bioenergetic function assay previously described[2],[3]. […] From these measurements, indices of mitochondrial function were determined as previously described[2],[3]. For mitochondrial complex activities assays, after cells were treated with Mito-PEG-ATO analogs for 24 h, the OCR-based assessment of mitochondrial complex activities was carried out on acutely permeabilized cells in the presence of different mitochondrial substrates, i.e., pyruvate/malate for complex I and duroquinol for complex III[3],[32],[34],[69]. Rotenone, malonate, and antimycin A (Sigma-Aldrich, St. Louis, MO) were used as specific inhibitors of mitochondrial complexes I, II, and III, respectively. Briefly, cells that were intact after treatments were immediately permeabilized using the Seahorse XF Plasma Membrane Permeabilizer (Agilent). The mitochondrial complex I-induced OCR was assayed in mannitol and sucrose buffer[69] containing 10 mM pyruvate and 1.5 mM malate (substrates for complex I) and 10 mM malonate (which inhibits complex II activities). […] The IC50 values were determined as previously reported.

[3] = target: mitochondrial complex III (MiaPaCa-2 cells) (Homo sapiens, UniProt P00156); assay: Complex III-dependent oxygen consumption in permeabilized cells, Seahorse XF-96; format: cell-based
Chain of mitochondrial complex III (MiaPaCa-2 cells) (P00156 whole entry): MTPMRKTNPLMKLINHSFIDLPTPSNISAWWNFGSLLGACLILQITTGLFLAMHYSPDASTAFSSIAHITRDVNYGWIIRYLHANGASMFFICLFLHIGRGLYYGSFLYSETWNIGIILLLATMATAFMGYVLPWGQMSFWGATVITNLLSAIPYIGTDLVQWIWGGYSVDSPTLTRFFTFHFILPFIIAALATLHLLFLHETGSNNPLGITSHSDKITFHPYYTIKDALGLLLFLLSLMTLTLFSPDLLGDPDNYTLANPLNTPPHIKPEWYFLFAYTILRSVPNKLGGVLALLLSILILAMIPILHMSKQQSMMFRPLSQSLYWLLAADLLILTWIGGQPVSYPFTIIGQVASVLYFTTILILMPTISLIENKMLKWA
Chain of mitochondrial complex III (MiaPaCa-2 cells) (P47985 whole entry partner): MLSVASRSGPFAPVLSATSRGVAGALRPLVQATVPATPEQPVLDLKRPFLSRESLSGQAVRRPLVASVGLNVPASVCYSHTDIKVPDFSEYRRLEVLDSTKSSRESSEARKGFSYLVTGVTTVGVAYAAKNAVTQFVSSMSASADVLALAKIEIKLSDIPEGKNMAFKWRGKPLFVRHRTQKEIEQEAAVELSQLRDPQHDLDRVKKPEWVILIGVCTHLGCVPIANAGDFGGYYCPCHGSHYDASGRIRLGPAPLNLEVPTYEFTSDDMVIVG
How it was run: (§2)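 MiaPaCa-2 cells were treated 24 h with Mito-PEG-ATO analogs, and OCR was read on a Seahorse XF-96; basal respiration was taken in intact cells. For complex I, permeabilized cells received 10 mM pyruvate, 1.5 mM malate and 10 mM malonate; for complex III, 0.5 mM duroquinol, 1 µM rotenone and 10 mM malonate, both in mannitol/sucrose buffer. IC50 values were derived from the OCR data.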

[4] = tested on: A549 cells; assay: Cell proliferation (cell confluence), IncuCyte Live-Cell Analysis System; format: cell-based; settings: Homo sapiens, A549, read-out: IC50, inhibition of A549 cell proliferation
Experimental: as §1
(§3) The IncuCyte Live-Cell Analysis System was used to monitor cell proliferation[3],[33],[67]. As shown in previous publications[3],[67], this imaging system is probe-free and noninvasive, and enables continuous monitoring of cell confluence over several days. The increase in the percentage of cell confluence was used as a surrogate marker of cell proliferation. In a 96-well plate, cells were plated at 1,000 cells per well in triplicates and left to adhere overnight. Cells were then treated with Mito-PEG-ATO analogs, and the cell confluency was recorded over several days in the IncuCyte Live-Cell Analysis System.
(§4) Figure S7. Effects of Mito-PEG-ATO analogs on the proliferation of human lung cancer (A549) cells and human colon cancer (HCT-116) cells. (A) The effects of Mito-PEG5-ATO and ATO on the proliferation of A549 (left) or HCT-116 (right) cells were monitored in the IncuCyte Live-Cell Analysis system. The IncuCyte analyzer provides real-time updates on cell confluence, based on segmentation of high definition-phase contrast images. Representative cell images were shown as a segmentation mask illustrated in brown when control cells reached 90% confluence (vertical solid black line). (B) The IC50 values for A549 (left) or HCT-116 (right) cells were determined at the point at which control cells reached ~90% confluence (vertical solid black line). Relative cell confluence (control is taken as 100%) is plotted against concentration. Dashed lines represent the fitting curves used to determine the IC50 values as indicated. Data shown are the mean±SD.

[5] = tested on: HCT-116 cells; assay: as above; format: cell-based; settings: Homo sapiens, HCT-116, read-out: IC50, inhibition of HCT-116 cell proliferation
Experimental: as §1, §3, §4

[6] = tested on: mitochondrial respiration (OCR) in intact MiaPaCa-2 cells; assay: Intact cell mitochondrial respiration (basal OCR), Seahorse XF-96; format: cell-based, human
How it was run: as §2

[7] = tested on: MiaPaCa-2 cells; assay: Cell death by SYTOX Green staining, IncuCyte; settings: Mito-PEG5-ATO 0.04 µM, AZD-3965 200 µM, 72 h

Cc1[nH]nc(C(F)(F)F)c1Cc1sc2c(c1C(=O)N1C[C@](C)(O)CO1)c(=O)n(C)c(=O)n2C(C)C [AZD-3965]
Inhibition of cell proliferation in combination with Mito-PEG5-ATO [1]: Synergistic inhibition
Effect on the decrease in complex I-induced oxygen consumption induced by Mito-PEG5-ATO [2]: Neither AZD-3965 nor V-9302 significantly affected
Effect on the decrease in complex III-induced oxygen consumption induced by Mito-PEG5-ATO ([3]; MiaPaCa-2 cells, with Mito-PEG5-ATO): Neither AZD-3965 nor V-9302 significantly affected

O=C1C(OCCOCCOCCOCCOCC[P+](c2ccccc2)(c2ccccc2)c2ccccc2)=C([C@H]2CC[C@H](c3ccc(Cl)cc3)CC2)C(=O)c2ccccc21.[Br-] [Mito-PEG5-ATO, [14-((3-(trans-4-(4-chlorophenyl)cyclohexyl)-1,4-dioxo-1,4-dihydronaphthalen-2-yl)oxy)-3,6,9,12-tetraoxatetradecyl]triphenylphosphonium bromide]
IC50 [4]: 110 nM
IC50 [5]: 140 nM
OCR (pmol/min/µg protein) ([6]; 0.003 µM, 24 h treatment, intact MiaPaCa-2 cells, baseline OCR, mean, n=4): 13.36 pmol/min/µg protein
OCR (basal, intact cell mitochondrial respiration) ([6]; 0.01 µM, 24 h treatment, intact MiaPaCa-2 cells, mean, n=4): 12.51 pmol/min/µg protein
OCR (basal, intact cell mitochondrial respiration) ([6]; 0.03 µM, 24 h treatment, intact MiaPaCa-2 cells, mean, n=4): 9.91 pmol/min/µg protein
OCR (basal, intact cell mitochondrial respiration) ([6]; 0.05 µM, 24 h treatment, intact MiaPaCa-2 cells, mean, n=4): 9.30 pmol/min/µg protein
OCR (basal, intact cell mitochondrial respiration) ([6]; 0.075 µM, 24 h treatment, intact MiaPaCa-2 cells, mean, n=4): 8.05 pmol/min/µg protein
OCR (basal, intact cell mitochondrial respiration) ([6]; 0.1 µM, 24 h treatment, intact MiaPaCa-2 cells, mean, n=4): 5.43 pmol/min/µg protein
OCR (basal, intact cell mitochondrial respiration) ([6]; 0.3 µM, 24 h treatment, intact MiaPaCa-2 cells, mean, n=4): 0.36 pmol/min/µg protein
OCR (basal, intact cell mitochondrial respiration) ([6]; 0.5 µM, 24 h treatment, intact MiaPaCa-2 cells, mean, n=4): 1.83 pmol/min/µg protein
OCR (basal, intact cell mitochondrial respiration) ([6]; 1 µM, 24 h treatment, intact MiaPaCa-2 cells, mean, n=4): 1.40 pmol/min/µg protein
OCR (basal, intact cell mitochondrial respiration) ([6]; 3 µM, 24 h treatment, intact MiaPaCa-2 cells, mean, n=4): 0.84 pmol/min/µg protein
OCR (basal, intact cell mitochondrial respiration) ([6]; 10 µM, 24 h treatment, intact MiaPaCa-2 cells, mean, n=4): 0.55 pmol/min/µg protein
IC50 ([6]; Homo sapiens, MIA PaCa-2, 24 h, read-out: IC50, inhibition of basal OCR in intact cells): 57 nM
Complex III activity (OCR, % of control) ([3]; 0.003 µM): 94.9 % of control
Complex III activity (OCR, % of control) ([3]; 0.01 µM): 94.3 % of control
Complex III activity (OCR, % of control) ([3]; 0.03 µM): 84.2 % of control
Complex III activity (OCR, % of control) ([3]; 0.05 µM): 89.9 % of control
Complex III activity (OCR, % of control) ([3]; 0.075 µM): 89.1 % of control
Complex III activity (OCR, % of control) ([3]; 0.1 µM): 87.5 % of control
Complex III activity (OCR, % of control) ([3]; 0.3 µM): 61.6 % of control
Complex III activity (OCR, % of control) ([3]; 0.5 µM): 38.4 % of control
Complex III activity (OCR, % of control) ([3]; 1 µM): 17.8 % of control
Complex III activity (OCR, % of control) ([3]; 3 µM): 8.0 % of control
IC50 ([3]; MiaPaCa-2 cells, 24 h treatment, antimycin A-inhibitable OCR, read-out: IC50, complex III-induced oxygen consumption (Complex III activity)): 390 nM
Cell death / cell toxicity (SYTOX Green counts) [7]: similarly low SYTOX Green counts

Reference: PMC8948292, “Combining PEGylated mito-atovaquone with MCT and Krebs cycle redox inhibitors as a potential strategy to abrogate tumor cell proliferation” (Scientific Reports, 2022)
